According to patent US8968715B2, “Drug delivery systems for photodynamic therapy” (The University of British Columbia, priority 2000, dated 2015):
“Also recorded” adds a separate entry of the source.

Tests used:
[1] = Drug incorporation into 10% w/v Pluronic P123; format: physicochemical; conditions: for Drug concentration formulated in 10% P123: 10% P123, non-optimized systems
Protocol: Using formulation methods described in Example 5, the aim was to incorporate 2 mg/ml of B-B3 into 10% w/v P123. It was shown by this method that the B-B3 can typically be incorporated at ˜1.8 mg/ml drug (based on absorbance readings and a molar extinction coefficient of 30425) 24 h post-hydration. This translates to approximately 10% drug loss. Unincorporated drug undergoes aggregation in aqueous solutions, and is characterized by the appearance of a 730 nm absorbance peak. Although the formulations can be made completely aggregate free by centrifugation or sterile filtration through 0.2 μm filters, this adds another step in the manufacturing process, which can be avoided by increasing the copolymer:drug ratio.

[2] = tested on: M1 rhabdomyosarcoma tumor cells; test: Tumor recurrence after PDT in tumor mouse model; format: in vivo, DBA/2 mouse
Protocol: Photosensitizer formulations were prepared in 10% w/v Pluronics as described in Example 4. BPD-MA was formulated in F127. B-ring compounds B-EA6 and B-B3, were prepared in P123 due to insufficient drug loading in F127. Liposomal BPD-MA formulation was Verteporfin™ and B-ring compounds were formulated in the same lipid composition. Where DMSO/plasma preparations were made, the DMSO dissolved drug was added directly to mouse plasma and the drug association with different plasma components was observed.
In these experiments the tumor model used was the DBA/2 mouse (males) inoculated intradermally with M1 rhabdomyosarcoma tumor cells (M1, ATCC. When tumors reached a diameter of 4-6 mm, the mice (n=10, unless other wise stated) were treated with photodynamic therapy (PDT). PDT involved intravenous injection of the formulated drug in 0.2 mL volume of PBS. This was followed by exposure of the tumor region to laser light (Argon pumped dye laser (5W), 690 nm, 50 J/cm^2) 15 min later. Animals were then monitored for tumor recurrence over a 20 day period post treatment.

MRL/lpr mouse = test: Transcutaneous PDT treatment of arthritis, ankle width; format: in vivo; conditions: 0.5 mg/kg i.v.
Protocol: Arthritis in the MRL/lpr mouse strain was enhanced by giving 2 intradermal injections (thoracic and inguinal sites) with 0.05 ml of complete Freunds adjuvant containing 10 mg/ml heat-inactivated M. tuberculosis. PDT was given on days 0, 10 and 20 following CFA treatment. PDT was carried out as follows; 3 groups of MRL/lpr mice were injected intravenously with B-B3 at 0.5 mg/kg (copolymer or liposomal formulations), after which they were protected from light. The third group was injected with copolymer alone at an equivalent copolymer concentration to that found in the formulation. An hour later, they were exposed to light at 80 J/cm^2 for […] (8 mW/cm^2).
Ankle width measurements were taken every 5 days prior to PDT treatment.

[3] = pH studies of formulation stability; format: physicochemical; conditions: poloxamer formulations
Source text: This necessitates hydration of the solid drug-polymer with a very mild buffer to counteract acidification which occurs upon use of sterile packed distilled water as commonly practiced in clinical settings. Behavior of poloxamers is unaffected by pH, and the use of buffers would be entirely dependent on ionizable groups present on the drug substance.

L1210 cells = test: Cellular uptake of photosensitizer formulations; format: cell-based; conditions: 3 μg/ml, FIG. 1
Protocol: The protocol for setting up the cell cultures and conditions for the cellular assay essentially followed Richter et al. (Proc. SPIE, 2078: 293-304, September 1993). L1210 cells in DMEM and 10% FBS (single experiment, 3 sets) were incubated with the formulations at a concentration of 3 μg/ml and examined for uptake in the cells over time. Cells were recovered by centrifugation, the pellet briefly rinsed, and the cells lysed by freeze thawing in the presence of 2% Triton X-100®. An equal volume of methanol was added and fluorescence was read at 694 nm (λex 440 nm).

[4] = Deposition of BPD-MA / F127 formulations on lactose crystals: hydration and filtration; format: physicochemical
Protocol: In this experiment the deposition of the photosensitizer BPD-MA with the block copolymer Pluronic® F127 onto the sugar lactose was examined. Formulations containing 5% (w/v) and a 10% (w/v) F127 were tested. 0.5 g lactose and 10 mg BPD-MA were added to two rotary evaporation flasks. A stock solution of […] F127 was prepared in CH2Cl2. 1.25 ml (for 5% w/v) and 2.5 ml (for 10% w/v) F127 stock solution was added to each flask. The final volume in each flask was made up to 5.0 ml with CH2Cl2 and the components mixed to ensure complete dissolution. The solvent was removed by rotary evacuation at 50° C., and the flask left under vacuum for a further 15 min at 23° C. Micro-thin film deposits were scraped from the walls and hydrated in 5 ml water at 50° C. The formulations were filtered twice using 0.2 μm syringe filters (Acrodisc, polysulphone).
The experimental conditions and components were the same as Example 15 with the exception of the following changes. A stock of 0.2 mg/ml F127 was prepared in ethanol and 0.65 ml (2.5% w/v) and 1.25 ml (5% w/v) of the stock solution was added to two flasks. The final volume was made up to 5.0 ml with ethanol and the contents dissolved with warming. Ethanol was removed by rotary evacuation at 50° C., left under vacuum for 15 min at room. Micro-thin film deposits were scraped from the walls and dissolved in 5 ml water at 50° C. as previously described. […]

[5] = BPD-MA drug loading and formulation stability in Pluronic copolymers (melt method, absorbance); format: physicochemical; conditions: 3 days storage at room temperature
Protocol: In this experiment the use of copolymers for drug loading capability and formulation stability over a 3 day period was examined using the photosensitizer drug BPD-MA. The criteria for choosing the copolymers were based on the solution and viscosity characteristics described in Example 1. The ‘melt’ method is used for the preparation and screening of the large number of samples and is described as follows. At temperatures above 50° C., poloxamers are in their molten state and serve as excellent solvents for tetrapyrrolic compounds, thus avoiding the need for pre-dissolution of drugs in organic solvents. 5 mg of BPD-MA was dissolved with the aid of vortex mixing and sonication at 55° C. into the polymer ‘melts’ to give a final concentration of 5% to 20% w/v of the respective Pluronic. To each melt sample, 2.5 ml of PBS was added to give a final BPD-MA concentration of 2 mg/ml. Samples were allowed to equilibrate to room temperature before drug loading was determined at time zero (T0). 1 ml of suspension was removed for centrifugation (Microfuge, 14,000 rpm, 30 min), and the rest filtered through 0.2 μm filters (Millipore). The filtrate was diluted 1:100 in PBS and the absorbance at 690±3 nm determined (uv-vis spectrophotometer Beckman DU-6401). This procedure was repeated 72 hours later following storage at room temperature and the absorbance measurement (T72).

| Molecule | Drug concentration formulated in 10% P123 [1] | Drug incorporated / retained 24 h post-hydration ([1]; aim 2 mg/ml into 10% w/v P123) [mg/mL] | PDT efficacy in tumor model ([2]; plasma/DMSO preparation) | Control of joint inflammation (increase in ankle swelling) (MRL/lpr mouse; copolymer formulation, 80 J/cm^2, FIG. 2) | Control of joint inflammation (increase in ankle swelling) (MRL/lpr mouse; liposomal formulation, after day 25) | Control of joint inflammation (increase in ankle swelling) (MRL/lpr mouse; liposomal formulation, earlier part of the study, FIG. 2, 0.5 mg/kg) | pH dependence of formulation stability [3] | Incubation time of 50% uptake level (L1210 cells; copolymer Pluronic P123 formulation) | Percent (%) Mice Tumor Free ([2]; Liposomal, 1.0 mg/kg, Day 7) [%] | Percent (%) Mice Tumor Free ([2]; Liposomal, 1.0 mg/kg, Day 14) [%] | Percent (%) Mice Tumor Free ([2]; Liposomal, 1.0 mg/kg, Day 20) [%] | Percent (%) Mice Tumor Free ([2]; Pluronic F127, 1.0 mg/kg, Day 7) [%] | Percent (%) Mice Tumor Free ([2]; Pluronic F127, 1.0 mg/kg, Day 14) [%] | Percent (%) Mice Tumor Free ([2]; Pluronic F127, 1.0 mg/kg, Day 20) [%] | Likelihood to remain tumor free, poloxamer formulation compared to liposomal BPD-MA ([2]; end of the 20 day period) | Filtration through 0.2 μm filter ([4]; 2.5% and 5% w/v F127 on lactose, ethanol as solvent) | Drug loss on filtration through 0.2 μm filters ([4]; 5% w/v and 10% w/v F127 on lactose, CH2Cl2 as solvent) | Stability of BPD-MA formulations in Pluronic [5] | Incubation time at which uptake saturation level is achieved (L1210 cells; liposomal formulation) [min] | Incubation time of 50% uptake (L1210 cells; liposomal formulation) |
| --- | --- | --- | --- | --- | --- | --- | --- | --- | --- | --- | --- | --- | --- | --- | --- | --- | --- | --- | --- | --- |
| C=Cc1c(C)c2cc3nc(cc4[nH]c(cc5nc(cc1[nH]2)C1(C)C5=CC=C(C(=O)O)C1C(=O)OC)c(C)c4CCC(=O)OC)C(CCC(=O)OC)=C3C (stereo not shown) [B-B3] | approximately 1.8 mg/ml | ~1.8 | completely ineffective for PDT purposes | highly effective in controlling the inflammation | exacerbation of the inflammatory condition | improved suppression of the inflammation compared to controls; also recorded: better suppression of the inflammation compared to the controls | detrimental to formulation stability | close to ‘zero’ incubation time | – | – | – | – | – | – | – | – | – | – | – | – |
| C=Cc1c(C)c2cc3nc(cc4[nH]c(cc5nc(cc1[nH]2)C1(C)C5=CC=C(C(=O)OC)C1C(=O)OC)c(C)c4CCC(=O)OCCO)C(CCC(=O)OCCO)=C3C (stereo not shown) [B-EA6] | – | – | – | – | – | – | does not display any pH-dependency | – | – | – | – | – | – | – | – | – | – | – | – | – |
| benzoporphyrin derivative monoacid ring A [BPD-MA] | ≤ 4000 µg/mL | – | – | – | – | – | – | – | 100 | 100 | 30 | 100 | 60 | 60 | twice as likely to remain tumor free | no resistance | no drug loss | no loss of stability | 30 | approximately 5 min |
